The values below come from patent US20140041337A1, “Food Packaging Method” (Kureha Corporation, priority 2007, published 2014).

Each structure is given as a SMILES string.

The test system of this experiment is bacteria. Description: Summary of bacterial counting, Tables 1 to 4. The class given is cell-based. Particulars: carbon dioxide gas 10 to 45 cm^3 per 100 g of the food (volume at 0° C. and 1 atm). The protocol: The bacteria counts were determined as follows. The sliced beef was diluted with a tenfold amount of sterile physiological saline to give a test liquid. One (1) ml of the test liquid was placed in sterile Petri dishes. For the viable bacteria count, a standard agar medium (manufactured by NISSUI PHARMACEUTICAL CO., LTD.) was added and the bacteria were cultured at 37° C. for 2 days. For the coliform bacteria count, a desoxycholate agar medium (manufactured by NISSUI PHARMACEUTICAL CO., LTD.) was added and the bacteria were cultured at 37° C. for 1 day. The colonies that grew were counted. The psychrophilic bacteria count was determined as follows. The sliced pork was diluted with a tenfold amount of sterile physiological saline to give a test liquid. One (1) ml of the test liquid was placed in sterile Petri dishes. A YGA agar medium (manufactured by NISSUI PHARMACEUTICAL CO., LTD.) was added and the bacteria were cultured at 10° C. for 5 days. The colonies that grew were counted.

With `O=C=O` [carbon dioxide gas, carbon dioxide], the bacterial growth result is reported as “inhibits bacterial growth”.
